# Source: publication PMC6107127, “Characteristics of the mitochondrial and cellular uptake of MPP^+, as probed by the fluorescent mimic, 4'I-MPP^+” (PLoS ONE, 2018)
# Columns and labels:
# [1] = test system: isolated intact MN9D mitochondria; assay: Effects of Ca2+ and inhibitors on MN9D mitochondrial uptake of 4'I-MPP+; parameters: species or system mouse; conditions: for 4'I-MPP+ uptake inhibition: 200 μM 4'I-MPP+
# Protocol: Intact MN9D cell mitochondria were incubated with 200 μM 4'I-MPP^+ for 45 min at 37 °C in 0, 500 or 1000 nM Ca^2+ containing KCl buffer. When mNCX inhibitors (KBR7943, 2APB and CGP37157) were used, mitochondrial suspensions were initially incubated with 10, 25 or 50 μM inhibitor in KCl buffer for 10 min at 37 °C and then with 200 μM 4'I- MPP^+ for 45 min at 37 °C. After the incubations, samples were centrifuged at 7,000 x g at 4 °C for 10 min and the mitochondrial pellets were treated with 75 μL of 0.1 M HClO4. […] To visualize the effect of CGP37157 on the mitochondrial uptake of 4'I-MPP^+ in live cells, HepG2 cells grown in glass-bottomed plates were incubated with 50 μM CGP37157 for 30 min initially and then with 100 μM 4'I-MPP^+ and 200 nM MitoTracker Green FM in KRB-HEPES for 1 h at 37 °C. After incubation cells were washed and reconstituted with KRB-HEPES, pH 7.4 and 4'I-MPP^+ and MitoTracker Green FM fluorescence images of cells were recorded as detailed above. Controls were treated under the same experimental conditions, except that CGP37157 was omitted from the initial incubation.
# S4 Fig. Effects of Benzamil, Verapamil, FFA, and ruthenium red on the MN9D mitochondrial uptake of 4'I-MPP+. MN9D mitochondrial suspensions were initially incubated with a 50 μM concentration of the desired agent (10 μM Ruthenium red) in KCl buffer for 10 min at 37 °C and then incubated with 200 μM 4'I-MPP+ for 45 min at 37 °C. After the incubations, the […] 4'I-MPP+ contents were quantified by RP-HPLC-UV as described in Material and methods. The data are represented as mean ± S.D (n=3).
# (also on this page, place not known: contol 10uM Ru red BenzamilVerapamil FFA 4I' MPP+ uptake (nmoles/mg) 0.0 0.1 0.2 0.3 0.4 0.5)
# (1 picture or pasted object on this page, not shown here)
# [2] = test system: HepG2 cells; assay: Effect of CGP37157 and KBR7943 on 4'I-MPP+-mediated mitochondrial membrane depolarization (TMRM); type: cell-based, human
# Protocol: HepG2 cells grown in glass-bottomed plates for two days were treated with 50 μM CGP37157 or KBR7943 in KRB-HEPES for 30 min followed by 50 nM TMRM in KRB-HEPES for 45 min. Then plates were mounted on the stage of the microscope and mitochondrial membrane depolarization upon the treatment with 100 μM 4'I-MPP^+ was measured as a function of time as detailed above. The effect of CGP37157 on the 4'I-MPP^+ mediated mitochondrial membrane depolarization at longer time periods was monitored by observing the reduction of TMRM fluorescence from 0 to 4 h incubations in the presence or absence of CGP37157. HepG2 cells were incubated with or without 10 μM CGP37157 followed by 50 nM TMRM, and finally with 4'I-MPP^+ (100 μM, 0 or 4 h) and the intracellular TMRM fluorescence was recorded. Controls were carried out using an identical protocol except that either CGP37157 or 4'I-MPP^+ were omitted from the incubation media.
# [3] = test system: MN9D cells; assay: Protection of MN9D cells from MPP+ and 4'I-MPP+ toxicities (MTT); type: cell-based, mouse; conditions: 0–50 μM CGP37157 30 min, then 80 μM MPP+ or 25 μM 4'I-MPP+ for 8 h
# Protocol: Cell viability was determined by the MTT [3-(4,5-dimethylthiazol-2-yl)-2,5-diphenyltetrazolium bromide)] assay. Briefly, cells were seeded on 96-well plates and allowed to grow to about 70–80% confluence. Prior to the experiment, culture media was replaced with KRB-HCO3^- containing desired concentrations of MPP^+ or 4'I-MPP^+ and incubated for 16 h at 37 °C. After the incubation, 10 μL of 5 mg/mL MTT solution was added to each well and incubated for 2 h at 37 °C. The resulting formazan was solubilized by the addition of 210 μL detergent solution [50% DMF/H2O (v/v), 20% SDS (w/v)] followed by incubation at 37 °C for 12 h. The cell viabilities were determined by quantifying solubilized formazan by measuring the difference in the absorbance at 570 nm and 650 nm. Results were expressed as % viability of MPP^+ or 4'I-MPP^+ treated cells with respect to control cells, which were treated under the same conditions except in the absence of the MPP^+ or 4'I-MPP^+.
# Fig 7 CGP37157 protect MN9D cells from MPP^+ and 4'I-MPP^+ toxicities. Cells were pre-incubated with 0–50 μM CGP37157 for 30 min followed by 80 μM MPP^+ or 25 μM 4'I-MPP^+ for 8 h. The relative cell viabilities were determiner using MTT assay, as detailed above. Data are presented as mean ± SD (n = 6). ٭p<0.0001 and #p<0.005 versus no CGP37157 controls.
# [4] = test system: HepG2 cells; conditions: 5 μM FCCP 30 min, then 50 μM toxin 45 min; in comparison to MN9D cells
# Protocol: (§1) Cells grown in 12-well plates were washed and incubated with 5 μM FCCP in KRB-HEPES for 30 min followed by 50 μM MPP^+ or 4'I-MPP^+ in the same buffer for 45 min at 37 °C. After the incubations, cells were washed with ice-cold KRB-HEPES and treated with 0.1 M HClO4. The intracellular MPP^+ or 4'I-MPP^+ contents of HClO4 extracts were quantified by HPLC-UV as detailed above. The controls were treated under the same conditions except that FCCP was omitted from the initial incubation. All uptake data were normalized to the respective protein concentration of each sample. To visualize the effect of FCCP on the mitochondrial accumulation of 4'I-MPP^+, cells were grown in glass bottomed plates and incubated with 5 μM FCCP in KRB-HEPES for 30 min followed by 100 μM 4'I-MPP^+ for 1 h at 37 °C. Then cells were washed and reconstituted with 1 mL of KRB-HEPES and the intracellular 4'I-MPP^+ fluorescence (Ex/Em 340/470-550 nm) were recorded.
# [5] = test system: MN9D cells; conditions: 5 μM FCCP 30 min, then 50 μM toxin 45 min
# Protocol: as §1
Structure (SMILES),4'I-MPP+ uptake inhibition ([1]; 10 μM inhibitor),4'I-MPP+ uptake inhibition ([1]; 25 μM inhibitor),effect on uptake of 4'I-MPP+ ([1]; 50 μM inhibitor at 200 μM 4'I-MPP+),"effect on 4'I-MPP+-induced mitochondrial membrane depolarization, longer incubation ([2]; 10 μM CGP37157, 100 μM 4'I-MPP+, lasting at least 4 h)","effect on 4'I-MPP+ mitochondrial membrane depolarization ([2]; 50 μM pre-treatment 30 min, 100 μM 4'I-MPP+)",protection from MPP+ and 4'I-MPP+ toxicities [3],effect on cellular accumulation of MPP+ and 4'I-MPP+ [4],effect on cellular accumulation of MPP+ and 4'I-MPP+ [5]
O=C1CSC(c2ccccc2Cl)c2cc(Cl)ccc2N1 (centres unmarked) [CGP37157],about 40%,~ 45%,inhibit the uptake,slows down,significantly reduced,effectively protects,–,–
"N#CC(C#N)=NNc1ccc(OC(F)(F)F)cc1 [FCCP, carbonyl cyanide-p-trifluoromethoxyphenylhydrazone]",–,–,–,–,–,–,stronger effect,significantly decreased
